In US20060234373A1, “Treatment for diabetes” (priority 2002, published 2006):
Marks after values point to notes of the source that are not given here.

Assays:
normal Wistar rats = test: Pancreatic insulin content in normal rats treated with TGF-α and gastrin; assay type: in vivo, rat; conditions: 0.8 μg/day each i.p. for 10 days, mean±SEM
Procedure: Normal Wistar and Zucker rats were allowed normal chow ad libidum with free access to water and were acclimatized for one week prior to initiation of each study. Freshly prepared streptozotocin at a dose of 80 mg/kg body weight was administered by I.V. five to seven days after induction of diabetes, the rats were randomly allocated into groups for subsequent treatment. In examples 1-4, TGF-α and rat gastrin were reconstituted in sterile normal saline containing 0.1% BSA. According to the predetermined treatment schedule for different studies, each animal received a single, daily i.p. injection of either TGF-α or gastrin alone (4.0 μg/kg body weight) or as a 1:1 (w/w) combination (total 8.0 μg/kg) or PBS for a period of 10 days. […]
At the end of the study period (10 days), all animals were sacrificed and samples of pancreas taken as follows: five biopsy specimens (1-2 mg) of pancreatic tissue were taken from separate representative sites in each rat pancreas and immediately snap frozen in liquid nitrogen for analysis of insulin content. […] Pancreatic insulin content values were corrected according to protein content and finally expressed as μg insulin/mg pancreatic protein. All values calculated as mean±SEM and statistical significance evaluated using Student's 2-sample t-test.

isolated human islets = test: β-cell population of isolated human islets maintained in culture; assay type: cell-based
Procedure: The purpose of this experiment was to determine whether treatment with EGF and gastrin can increase the β-cell population of human islets in vitro and by what mechanism. Islet cell preparations were isolated from human donor pancreases (n=5) and prepared according to the approved protocol used for preparation of human islets for islet cell transplantation (Lakey JRT et al (1999) Cell transplant 8:285-292, and Ricordi C. et al. (1988) Diabetes 37:413-420). Islet cells were seeded at a concentration of 1×10^6 cells per dish and cultured for 4 weeks in serum free-MEM medium alone or supplemented with EGF (0.3 μg/ml), gastrin (1.0 μg/ml), or EGF+gastrin in combination for 4 weeks and maintained in culture for an additional 4 weeks.

For Gastrin, the “Pancreatic Insulin Content” value (normal Wistar rats) was 51.4 +/− 14.0** μg insulin/mg protein, the β-cell mass change (isolated human islets; after 4 weeks culture, EGF 0.3 μg/ml, gastrin 1.0 μg/ml, medium alone −60%) was −1% and the “induction of PDX-1 expression on CK19+ ductal cells” value (isolated human islets; human islets in culture) was “mainly responsible for induction of PDX-1 expression”.

In the case of “TGF-α: recombinant Human TGF-α, an EGF receptor ligand”, the “Pancreatic Insulin Content” value (normal Wistar rats) is reported as 30.4 +/− 7.4* μg insulin/mg protein.
